# Assay results published in PubChem BioAssay (NCI).
#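 Following 48 hours of exposure in 96-well plates, responses at five concentrations were used to interpolate endpoints linearly. Definition used: TGI = concentration required for complete inhibition of growth.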
# Tests used:
# Assay in all cases: inhibition of tumour cell growth, NCI panel, 48 h
# HOP-92 NSCLC = tested on: HOP-92 NSCLC
# HT29 colon = tested on: HT29 colon
# SK-MEL-5 melanoma = tested on: SK-MEL-5 melanoma
# DMS 273 small cell lung = tested on: DMS 273 small cell lung
# HOP-62 NSCLC = tested on: HOP-62 NSCLC
# DMS 114 small cell lung = tested on: DMS 114 small cell lung
# HCC-2998 colon = tested on: HCC-2998 colon
# OVCAR-3 ovarian = tested on: OVCAR-3 ovarian
# HCT-116 colon = tested on: HCT-116 colon
# NCI-H522 lung = tested on: NCI-H522 lung
# OVCAR-8 ovarian = tested on: OVCAR-8 ovarian
# M14 melanoma = tested on: M14 melanoma
# OVCAR-5 ovarian = tested on: OVCAR-5 ovarian
# U251 CNS = tested on: U251 CNS
# SK-MEL-2 melanoma = tested on: SK-MEL-2 melanoma
# KM12 colon = tested on: KM12 colon
# NCI-H23 lung = tested on: NCI-H23 lung
# XF 498 CNS = tested on: XF 498 CNS
# A498 renal = tested on: A498 renal
# HL-60(TB) leukemia = tested on: HL-60(TB) leukemia
# NCI-H460 lung = tested on: NCI-H460 lung
# EKVX NSCLC = tested on: EKVX NSCLC
# SN12C renal = tested on: SN12C renal
# 786-0 renal = tested on: 786-0 renal
# K-562 leukemia = tested on: K-562 leukemia
# TK-10 renal = tested on: TK-10 renal
# SF-268 CNS = tested on: SF-268 CNS
# SK-OV-3 ovarian = tested on: SK-OV-3 ovarian
# LOX IMVI melanoma = tested on: LOX IMVI melanoma
# SF-295 CNS = tested on: SF-295 CNS
# UO-31 renal = tested on: UO-31 renal
# COLO 205 colon = tested on: COLO 205 colon
# UACC-62 melanoma = tested on: UACC-62 melanoma
# RPMI-8226 leukemia = tested on: RPMI-8226 leukemia
# LXFL 529 NSCLC = tested on: LXFL 529 NSCLC
# CCRF-CEM leukemia = tested on: CCRF-CEM leukemia
# NCI-H226 lung = tested on: NCI-H226 lung
# MOLT-4 leukemia = tested on: MOLT-4 leukemia
# UACC-257 melanoma = tested on: UACC-257 melanoma
# SNB-78 CNS = tested on: SNB-78 CNS
# SNB-19 CNS = tested on: SNB-19 CNS
# SF-539 CNS = tested on: SF-539 CNS
# HCT-15 colon = tested on: HCT-15 colon
# ACHN renal = tested on: ACHN renal
# A549 NSCLC = tested on: A549 NSCLC
# SK-MEL-28 melanoma = tested on: SK-MEL-28 melanoma
# OVCAR-4 ovarian = tested on: OVCAR-4 ovarian
# KM20L2 colon = tested on: KM20L2 colon
# SR leukemia = tested on: SR leukemia
# SW-620 colon = tested on: SW-620 colon
# M19-MEL melanoma = tested on: M19-MEL melanoma
# MALME-3M melanoma = tested on: MALME-3M melanoma
# MCF7 breast = tested on: MCF7 breast
# PC-3 prostate = tested on: PC-3 prostate
# CAKI-1 renal = tested on: CAKI-1 renal
# MDA-N = tested on: MDA-N
# RXF 393 renal = tested on: RXF 393 renal
# T-47D breast = tested on: T-47D breast
# MDA-MB-231 breast = tested on: MDA-MB-231 breast
# BT-549 breast = tested on: BT-549 breast
# IGROV1 ovarian = tested on: IGROV1 ovarian
# NCI/ADR-RES ovarian = tested on: NCI/ADR-RES ovarian
# HS 578T breast = tested on: HS 578T breast
# SNB-75 CNS = tested on: SNB-75 CNS
# MDA-MB-435 = tested on: MDA-MB-435
# DU-145 prostate = tested on: DU-145 prostate
compound,measurement,setting,value
COc1ccc(NC(=O)C(=O)NNC(=O)c2sc(NNC(C)=O)nc2C)c([N+](=O)[O-])c1,TGI,HOP-92 NSCLC,> 100 µM
same,TGI,HT29 colon,> 100 µM
same,TGI,SK-MEL-5 melanoma,> 100 µM
same,TGI,DMS 273 small cell lung,> 100 µM
same,TGI,HOP-62 NSCLC,> 100 µM
same,TGI,DMS 114 small cell lung,> 100 µM
same,TGI,HCC-2998 colon,> 100 µM
same,TGI,OVCAR-3 ovarian,> 100 µM
same,TGI,HCT-116 colon,> 100 µM
same,TGI,NCI-H522 lung,> 100 µM
same,TGI,OVCAR-8 ovarian,> 100 µM
same,TGI,M14 melanoma,> 100 µM
same,TGI,OVCAR-5 ovarian,> 100 µM
same,TGI,U251 CNS,> 100 µM
same,TGI,SK-MEL-2 melanoma,> 100 µM
same,TGI,KM12 colon,> 100 µM
same,TGI,NCI-H23 lung,> 100 µM
same,TGI,XF 498 CNS,> 100 µM
same,TGI,A498 renal,> 100 µM
same,TGI,HL-60(TB) leukemia,> 100 µM
same,TGI,NCI-H460 lung,> 100 µM
same,TGI,EKVX NSCLC,> 100 µM
same,TGI,SN12C renal,> 100 µM
same,TGI,786-0 renal,> 100 µM
same,TGI,K-562 leukemia,> 100 µM
same,TGI,TK-10 renal,> 100 µM
same,TGI,SF-268 CNS,> 100 µM
same,TGI,SK-OV-3 ovarian,> 100 µM
same,TGI,LOX IMVI melanoma,> 100 µM
same,TGI,SF-295 CNS,> 100 µM
same,TGI,UO-31 renal,> 100 µM
same,TGI,COLO 205 colon,> 100 µM
same,TGI,UACC-62 melanoma,> 100 µM
same,TGI,RPMI-8226 leukemia,> 100 µM
same,TGI,LXFL 529 NSCLC,> 100 µM
same,TGI,CCRF-CEM leukemia,61.7 µM
same,TGI,NCI-H226 lung,> 100 µM
same,TGI,MOLT-4 leukemia,85.1 µM
same,TGI,UACC-257 melanoma,> 100 µM
same,TGI,SNB-78 CNS,> 100 µM
same,TGI,SNB-19 CNS,> 100 µM
same,TGI,SF-539 CNS,> 100 µM
same,TGI,HCT-15 colon,> 100 µM
same,TGI,ACHN renal,> 100 µM
same,TGI,A549 NSCLC,> 100 µM
same,TGI,SK-MEL-28 melanoma,> 100 µM
same,TGI,OVCAR-4 ovarian,> 100 µM
same,TGI,KM20L2 colon,> 100 µM
same,TGI,SR leukemia,> 100 µM
same,TGI,SW-620 colon,> 100 µM
same,TGI,M19-MEL melanoma,> 100 µM
same,TGI,MALME-3M melanoma,> 100 µM
O=C(O)c1c(-c2c3ccc(=O)cc-3oc3cc(O)ccc23)cc2ccccc2c1-c1ccccc1,TGI,MCF7 breast,> 100 µM
same,TGI,HOP-92 NSCLC,> 100 µM
same,TGI,HT29 colon,> 100 µM
same,TGI,SK-MEL-5 melanoma,> 100 µM
same,TGI,HOP-62 NSCLC,> 100 µM
same,TGI,HCC-2998 colon,> 68.4 µM
same,TGI,OVCAR-3 ovarian,> 100 µM
same,TGI,HCT-116 colon,> 100 µM
same,TGI,NCI-H522 lung,> 100 µM
same,TGI,OVCAR-8 ovarian,> 100 µM
same,TGI,M14 melanoma,> 100 µM
same,TGI,OVCAR-5 ovarian,> 100 µM
same,TGI,U251 CNS,> 100 µM
same,TGI,SK-MEL-2 melanoma,> 100 µM
same,TGI,KM12 colon,> 100 µM
same,TGI,NCI-H23 lung,> 100 µM
same,TGI,A498 renal,> 100 µM
same,TGI,HL-60(TB) leukemia,> 100 µM
same,TGI,PC-3 prostate,> 100 µM
same,TGI,CAKI-1 renal,> 100 µM
same,TGI,NCI-H460 lung,> 100 µM
same,TGI,MDA-N,> 100 µM
same,TGI,RXF 393 renal,> 100 µM
same,TGI,EKVX NSCLC,> 100 µM
same,TGI,SN12C renal,> 100 µM
same,TGI,786-0 renal,> 100 µM
same,TGI,K-562 leukemia,> 46.4 µM
same,TGI,T-47D breast,> 100 µM
same,TGI,MDA-MB-231 breast,> 100 µM
same,TGI,TK-10 renal,> 100 µM
same,TGI,SF-268 CNS,> 100 µM
same,TGI,BT-549 breast,> 100 µM
same,TGI,SK-OV-3 ovarian,> 100 µM
same,TGI,LOX IMVI melanoma,> 100 µM
same,TGI,IGROV1 ovarian,> 100 µM
same,TGI,SF-295 CNS,> 100 µM
same,TGI,UO-31 renal,> 100 µM
same,TGI,NCI/ADR-RES ovarian,> 100 µM
same,TGI,COLO 205 colon,> 100 µM
same,TGI,UACC-62 melanoma,> 100 µM
same,TGI,RPMI-8226 leukemia,> 100 µM
same,TGI,CCRF-CEM leukemia,> 67.3 µM
same,TGI,HS 578T breast,> 100 µM
same,TGI,NCI-H226 lung,> 100 µM
same,TGI,MOLT-4 leukemia,8.37 µM
same,TGI,UACC-257 melanoma,> 100 µM
same,TGI,SNB-19 CNS,> 100 µM
same,TGI,SF-539 CNS,> 100 µM
same,TGI,HCT-15 colon,> 100 µM
same,TGI,ACHN renal,> 100 µM
same,TGI,A549 NSCLC,> 100 µM
same,TGI,SK-MEL-28 melanoma,> 100 µM
same,TGI,OVCAR-4 ovarian,> 100 µM
same,TGI,SNB-75 CNS,> 100 µM
same,TGI,MDA-MB-435,> 100 µM
same,TGI,SR leukemia,> 100 µM
same,TGI,DU-145 prostate,> 100 µM
same,TGI,SW-620 colon,> 100 µM
same,TGI,MALME-3M melanoma,> 100 µM
COc1ccc(-c2cc(-c3ccc(Nc4ccnc5cc(C(F)(F)F)ccc45)cc3)[nH]c(=O)c2C#N)c2ccccc12,TGI,MCF7 breast,> 100 µM
same,TGI,HOP-92 NSCLC,> 100 µM
same,TGI,HT29 colon,> 74.2 µM
same,TGI,SK-MEL-5 melanoma,> 100 µM
same,TGI,HOP-62 NSCLC,47.2 µM
same,TGI,HCC-2998 colon,> 100 µM
same,TGI,OVCAR-3 ovarian,> 100 µM
same,TGI,HCT-116 colon,> 100 µM
same,TGI,NCI-H522 lung,> 100 µM
same,TGI,OVCAR-8 ovarian,> 100 µM
same,TGI,M14 melanoma,> 70.7 µM
same,TGI,OVCAR-5 ovarian,> 100 µM
same,TGI,U251 CNS,> 36.4 µM
same,TGI,SK-MEL-2 melanoma,> 100 µM
same,TGI,KM12 colon,> 100 µM
same,TGI,NCI-H23 lung,> 100 µM
same,TGI,A498 renal,> 58.4 µM
same,TGI,HL-60(TB) leukemia,> 100 µM
same,TGI,PC-3 prostate,> 100 µM
same,TGI,CAKI-1 renal,> 100 µM
same,TGI,NCI-H460 lung,> 100 µM
same,TGI,MDA-N,> 52.9 µM
same,TGI,RXF 393 renal,46.1 µM
same,TGI,EKVX NSCLC,> 100 µM
same,TGI,SN12C renal,> 100 µM
same,TGI,786-0 renal,> 100 µM
same,TGI,K-562 leukemia,> 100 µM
same,TGI,T-47D breast,> 60.5 µM
same,TGI,MDA-MB-231 breast,> 59.8 µM
same,TGI,TK-10 renal,> 90.7 µM
same,TGI,SF-268 CNS,> 100 µM
same,TGI,BT-549 breast,> 100 µM
same,TGI,SK-OV-3 ovarian,> 100 µM
same,TGI,LOX IMVI melanoma,> 49.7 µM
same,TGI,IGROV1 ovarian,> 100 µM
same,TGI,SF-295 CNS,> 100 µM
same,TGI,UO-31 renal,> 65.9 µM
same,TGI,NCI/ADR-RES ovarian,> 100 µM
same,TGI,COLO 205 colon,> 58.4 µM
same,TGI,UACC-62 melanoma,> 100 µM
same,TGI,RPMI-8226 leukemia,> 100 µM
same,TGI,CCRF-CEM leukemia,> 56.8 µM
same,TGI,HS 578T breast,> 100 µM
same,TGI,NCI-H226 lung,> 100 µM
same,TGI,MOLT-4 leukemia,> 100 µM
same,TGI,UACC-257 melanoma,> 100 µM
same,TGI,SNB-19 CNS,> 54.7 µM
same,TGI,SF-539 CNS,> 53.7 µM
same,TGI,HCT-15 colon,> 100 µM
same,TGI,ACHN renal,> 81.5 µM
same,TGI,A549 NSCLC,> 100 µM
same,TGI,SK-MEL-28 melanoma,> 100 µM
same,TGI,OVCAR-4 ovarian,> 100 µM
same,TGI,SNB-75 CNS,29.9 µM
same,TGI,MDA-MB-435,> 56.1 µM
same,TGI,SR leukemia,> 48.9 µM
same,TGI,DU-145 prostate,> 83.7 µM
same,TGI,SW-620 colon,> 100 µM
same,TGI,MALME-3M melanoma,> 63.2 µM
